Source: patent EP2325187A1, “THE HYDROSULFATE OF PRASUGREL, ITS PHARMACEUTICAL COMBINATION AND USES THEREOF” (priority 2008, dated 2010)

Columns and labels:
[1] = dog, in vivo, 10 mg/kg
Description: Six healthy male beagle dogs of around 7-month-old, without statistical difference in their weights, are used in the experiments and fed normally for 2 weeks without receiving any drug. Six beagle dogs are divided randomly into prasugrel bisulfate group and prasugrel hydrochloride group, with 3 dogs in each group. Following the process disclosed in Experimental Example 1 of Chinese Patent Publication No. CN1214031A, the pharmacokinetic parameters of S-methylate in the plasma of the dogs in each group after administration are determined (the administration dosage for both groups is 10mg/kg).

[2] = test system: platelet aggregation induced by ADP; assay: Inhibition of platelet aggregation induced by ADP (platelet-rich plasma taken from dosed rats); format: in vivo
Method: (§1) […] male SD rats weighted 200-300g are provided by the Experimental Animal Center of Lunan Pharmaceutical Group corporation and are divided randomly into 5 groups with 10 rats in each group. The animals are acclimatized for one week before experiment. The animals in the excipient group (equivalent volume of physiological saline), prasugrel maleate group (10mg/kg), prasugrel bisulfate group (10mg/kg) are administered by gastric gavage once each day for 7 days.
(§2) Two days after administered as above, the animals are starved over night. One hour after administered on the second day, the animals are anaesthetized by intraperitoneal injection of urethane, and then celiotomized to separate the abdominal aorta. A polyethylene cannula is inserted to collect 5 ml of blood into a test tube (in the tube is placed beforehand 0.5 ml of 3.8% sodium citrate solution, i.e. the ratio of the anticoagulant solution and blood is 1:9). The whole blood is centrifuged at 1000 rpm for 4 min. 1 ml of platelet-rich plasma (PRP) is taken. The remaining liquid is centrifuged at 3000 rpm for further 8 min. 1 ml of platelet-poor plasma (PPP) is taken. The two samples are placed separately in two plastic test tubes under a constant temperature of (37±0.1)°C. Using ADP (30 ul/tube) and collagen (30 ul/tube) as aggregation inducers, the maximum aggregation intensity is determined and the inhibition rate is calculated. Rate of inhibiting aggregation = (aggregation intensity for excipient group-aggregation intensity for experimental group)/aggregation intensity for excipient group × 100% [formula]

[3] = test system: platelet aggregation induced by collagen; assay: Inhibition of platelet aggregation induced by collagen (platelet-rich plasma taken from dosed rats); format: in vivo
Method: as §1, §2

rats = assay: Determination of the rate of hemorrhage (hyperemia, oedema, hemorrhage in the gastric mucosa); format: in vivo
Method: as §1
After the rate of inhibiting aggregation is determined, the rats are sacrificed and dissected. The appearances of hyperemiam, oedema, hemorrhage in the gastric mucosa are examined with the aid of a magnifier, and the rats developed with hyperemiam, oedema, hemorrhage in the gastric mucosa are recorded into corresponding test groups as cases of hemorrhage.

[4] = rats, 10mg/kg by gastric gavage, n=10 per group, gastric mucosa

In the case of `CC(=O)Oc1cc2c(s1)CCN(C(C(=O)C1CC1)c1ccccc1F)C2` (stereo not drawn) [Prasugrel Bisulfate, 2-acetyloxy-5-(α-cycloproylcarbonyl-2-fluorobenzyl)-4,5,6,7-tetrahydrothieno[3,2-C]pyridine bisulfate], the AUC [1] is reported as 82.3 ± 7.6 µg·min/mL, the Cmax [1] is reported as 1210 ± 130 ng/mL and the bioavailability [1] is reported as “better bioavailability than prasugrel hydrochloride”. The “ADP Aggregation Intensity (%)” value ([2]; 10mg/kg by gastric gavage once each day, inducer ADP 30 ul/tube, maximum aggregation intensity) was 0.336±0.075 %, the “inhibition to platelet aggregation induced by ADP” value ([2]; 10mg/kg, result in words) was “very significant inhibition” and the inhibition at 10 mg/kg ([2]; Rattus norvegicus, Platelet, po, 10mg/kg by gastric gavage once each day, inducer ADP 30 ul/tube, relative to excipient group, read-out: ADP Inhibition Rate (%)) was 48.5 ± 10.6%. The “Collagen Aggregation Intensity (%)” value ([3]; 10mg/kg by gastric gavage once each day, inducer collagen 30 ul/tube, maximum aggregation intensity) was 0.346±0.083 %, the “inhibition to platelet aggregation induced by collagen” value ([3]; 10mg/kg, result in words) was “very significant inhibition” and the inhibition at 10 mg/kg ([3]; Rattus norvegicus, Platelet, po, 10mg/kg by gastric gavage once each day, inducer collagen 30 ul/tube, relative to excipient group, read-out: Collagen Inhibition Rate (%)) was 54.3 ± 13.5%. The rate of hemorrhage (rats; rat, in vivo) was “significantly lower than that in the prasugrel maleate group”, the “Cases of Hemorrhage” value (rats; [4]) was 1 and the “Rate of Hemorrhage (%)” value (rats; [4]) was 10%.
